Measurements from patent US12528777B2, “Quinazolinones derivatives for treatment of non-alcoholic fatty liver disease, preparation and use thereof” (Council of Scientific and Industrial Research, priority 2020, dated 2026).
pEC50: −log10 of the molar value.

Key:
[1] = tested on: HepG2 cells; assay: Confocal microscopy: lipid droplets in oleate induced HepG2 cells; format: cell-based; parameters: key to Reduction in Lipid Droplets: + = slight or in insignificant; ++ = Moderate; +++ and ++++ = active; +++ and ++++ = active; +++++ = very active; settings: for Reduction in Lipid Droplets: oleate induced HepG2 cells, score; for Number of lipid droplets: HepG2 cells, 250 μM oleate induction
Method: (§1) To select the compounds capable of inhibiting the ubiquitination of ATGL by COP1 by targeting the VP motif, confocal microscopy was performed with the provided molecules. If the compound was effective in inhibiting the interaction, there would be a reduction in the number of fat droplets in the cells after treatment. […] With this rationale in mind, HepG2 cells were induced to accumulate lipid droplets after treatment with 250 µM of oleate and 10 μM of the specific compounds were added. The potential of the compounds to bring about a reduction in the number of fat droplets was then checked by comparison with oleate induced cells by counting number of droplets of approximately 20 cells from each treatment and calculating the average number of lipid droplets of each cell. The selected compounds were then subjected to dose dependent treatments and the ones which could maintain its potency to reduce fat droplets at lower doses were then selected for western blot analysis. The compound which could reduce the number of fat droplets in the cells are expected to raise the levels of ATGL since they are likely to deter COP1 from ubiquitinating ATGL. This increase will be visible only in the protein level and gene expression is likely to remain unchanged since ubiquitination is a […] modification. Thus, western blot was performed to check ATGL levels in the cells with the selected molecules.
HepG2 cells were plated in confocal dishes (SPL, Genetix Biotech Asia Pvt. Ltd.). The cells were allowed to adhere and divide for 16 hours. 10 μM for initial screening and 10 nM, 20 nM, 50 nM, 100 nM, 200 nM, 500 nM, 1 μM and 5 μM for dose dependent assays of the compounds 9 and 107 were dissolved in DMSO and added to the cells. 250 μM of oleate was used for induction. BSA (Sigma Aldrich) was used as a negative control. Post 24 hours of treatment, media was decanted from the cells and washed with 1×PBS solution to remove any remnant. 200 μl of staining solution containing 200 ng/ml BODIPY (Invitrogen) and 25 µg/ml HOECKST342 (Invitrogen) were added to the cells and incubated at 37° C. for 30 minutes under dark conditions. Cells were washed 3 times with 1×PBS to remove excess stain. FLUOVIEW FV10i (Olympus) was used to visualise the cells.

[2] = tested on: ATGL; assay: Western blot of ATGL level in HepG2 cells; format: cell-based; parameters: key to Increase in ATGL level: + = slight or in insignificant; ++ = Moderate; +++ and ++++ = active; +++ and ++++ = active; +++++ = very active; settings: for Increase in ATGL level: HepG2 cells, score; for Increase in ATGL level / ATGL level in HepG2 cells: western blot; for ATGL level in HepG2 cells: 24 hours, 10 μM screening or 50 nM-5 μM dose dependent; for pEC50: fold increase of ATGL by densitometry, as % of 1.6 fold maximum with siCOP1, doses 10-5000 nM, read-out: EC50 (in-vitro)
Method: as §1
HepG2 cells were treated with the compounds 9, 10, 11, 17, 18, 23, 24, 115, 123, 127, 139,107, 171, 179, 73, 187, 211, 215, 219, 223, 232, 238, 241, 244, 258, 299, 308, and 333a, (10 μM for initial screening and 50 nM, 100 nM, 200 nM, 500 nM, 1 μM and 5 μM for dose dependent assays) for 24 hours. After removing media from the cells, the wells were washed with 1×PBS twice to remove any remnant media. Cells were then lysed in lysis buffer containing 50 mM Tris-HCl (pH 7.4), 100 mM NaCl, 1 mM EDTA, 1 mM EGTA, 1% Triton X-100 and protease inhibitor cocktail (Millipore, Billierica, MA, USA). Following centrifugation at 20,000 g for 20 minutes, the protein solution was extracted from the cells. Protein was estimated using Bradford assay. Bradford's reagent (BioRad) was diluted in 1:4 ratio in double distilled water. 2 μl of protein sample was added to 100 μl of the reagent and absorbance was measured at 595 nm. […] of protein was diluted in lysis buffer. 1× loading buffer diluted from 5× stock containing 250 mM Tris-HCl (pH 6.8), 10% SDS, 50% glycerol, 0.1% bromophenol Blue and 10% β-mercaptoethanol was added. The protein samples were then heated at 95° C. for 10 minutes, cooled and centrifuged at 12,000 g for 2 minutes prior to loading.
For western blotting, the proteins were resolved in 10% SDS PAGE (discontinuous buffer system). 1× running buffer containing SDS, Tris Base and Glycine was used to run the gel at 80V for approximately 2 hours. Transfer was done using PVDF membrane (Millipore) having pore size of 0.45 μm. 1× transfer buffer containing Tris-Base, Glycine and 20% methanol was used for wet transfer. Transfer was done at 90V for 3 hours. Following transfer, the PVDF membrane containing the proteins were washed in 1×PBST comprising of 1×PBS and 1% Tween 20 (Sigma Aldrich). The membrane was then incubated for 1 hour at room temperature in 5% skim milk powder to block the non-specific sites. Following multiple washes with 1×PBST to wash away any remaining blocking buffer, the required primary antibody (COP1 [Bethyl Laboraties], ATGL [Cell Signalling Technology] or Actin[Cell Signalling Technology]) prepared with 1×PBST, 1% Bovine Serum Albumin and 0.04% Sodium Azide was added to the membrane and incubated overnight at 4° C. The next day, the membrane was again washed multiple times with 1×PBST to remove any unbound primary antibody. The membrane was then incubated with goat anti-rabbit secondary antibody (Genei) for 1 hour at room temperature and washed again for multiple times with 1×PBST. […]

Row | Structure (SMILES) | Reduction in Lipid Droplets [1] | Increase in ATGL level [2] | ATGL level in HepG2 cells [2] | Number of lipid droplets [1] | pEC50 [2]
1 | CCOC(=O)Cn1cnc2ccc(NC(=O)Nc3cccc(C(C)=O)c3)cc2c1=O [Compound 85, ethyl 2-(6-(3-(3-acetylphenyl)ureido)-4-oxoquinazolin-3 (4H)-yl)acetate] | + | + |  |  | 
2 | COCCn1cnc2ccc(NC(=O)Nc3cccc(N(C)C(C)=O)c3)cc2c1=O [Compound 23, N-(3-(3-(3-(2-methoxyethyl)-4-oxo-3,4-dihydroquinazolin-6-yl)ureido)phenyl)-N-methylacetamide] | ++ | ++++ | increased ATGL level |  | 
3 | COc1cccc(-n2cnc3ccc(NC(=O)Nc4cccc(C(C)=O)c4)cc3c2=O)c1 [Compound 103, 1-(3-acetylphenyl)-3-(3-(3-methoxyphenyl)-4-oxo-3,4-dihydroquinazolin-6-yl)urea] | + | + | some sort of increase in ATGL level | reduction in lipid droplets | 
4 | CC(=O)c1cccc(NC(=O)Nc2ccc3ncn(CCN4CCOCC4)c(=O)c3c2)c1 [Compound 135, 1-(3-acetylphenyl)-3-(3-(2-morpholinoethyl)-4-oxo-3,4-dihydroquinazolin-6-yl)urea] | ++ | +++ | some sort of increase in ATGL level | reduction in lipid droplets | 
5 | COCCn1cnc2ccc(NC(=O)Nc3cccc(C(=O)NC4CCCCC4)c3)cc2c1=O [Compound 15, N-cyclohexyl-3-(3-(3-(2-methoxyethyl)-4-oxo-3,4-dihydroquinazolin-6-yl)ureido)benzamide] | + | ++++ |  |  | 
6 | CC(=O)c1cccc(NC(=O)Nc2ccc3ncn(-c4cccnc4)c(=O)c3c2)c1 [Compound 155, 1-(3-acetylphenyl)-3-(4-oxo-3-(pyridin-3-yl)-3,4-dihydroquinazolin-6-yl)urea] | +++ | ++ | some sort of increase in ATGL level | reduction in lipid droplets | 
7 | COCCn1cnc2ccc(NC(=O)Nc3ccc(F)cc3)cc2c1=O [Compound 35, 1-(4-fluorophenyl)-3-(3-(2-methoxyethyl)-4-oxo-3,4-dihydroquinazolin-6-yl)urea] | + | + |  |  | 
8 | CCOCCn1cnc2ccc(NC(=O)Nc3cccc(C(C)=O)c3)cc2c1=O [Compound 93, 1-(3-acetylphenyl)-3-(3-(2-ethoxyethyl)-4-oxo-3,4-dihydroquinazolin-6-yl)urea] | +++ | ++++ | some sort of increase in ATGL level | reduction in lipid droplets | 
9 | COCCn1cnc2ccc(NC(=O)Nc3cccc(C(=O)c4ccccc4)c3)cc2c1=O [Compound 14, 1-(3-benzoylphenyl)-3-(3-(2-methoxyethyl)-4-oxo-3,4-dihydroquinazolin-6-yl)urea] | + | + |  |  | 
10 | COc1ccccc1-n1cnc2ccc(NC(=O)Nc3cccc(C(C)=O)c3)cc2c1=O [Compound 131, 1-(3-acetylphenyl)-3-(3-(2-methoxyphenyl)-4-oxo-3,4-dihydroquinazolin-6-yl)urea] |  | + |  |  | 
11 | COCCn1c(C2CCCC2)nc2ccc(NC(=O)Nc3cccc(C(C)=O)c3)cc2c1=O [Compound 127, 1-(3-acetylphenyl)-3-(2-cyclopentyl-3-(2-methoxyethyl)-4-oxo-3,4-dihydroquinazolin-6-yl)urea] |  |  | increased ATGL level |  | 7.97
12 | COCCn1cnc2ccc(NC(=O)Nc3cccc(C(C)=O)c3)c(-c3ccc(F)cc3)c2c1=O [Compound 47, 1-(3-acetylphenyl)-3-(5-(4-fluorophenyl)-3-(2-methoxyethyl)-4-oxo-3,4-dihydroquinazolin-6-yl)urea] |  | +++ |  |  | 
13 | COCC(C)n1c(C)nc2ccc(NC(=O)Nc3cccc(C(C)=O)c3)cc2c1=O (stereo not shown) [Compound 285, 1-(3-acetylphenyl)-3-(3-(1-methoxypropan-2-yl)-2-methyl-4-oxo-3,4-dihydroquinazolin-6-yl)urea] |  | + |  |  | 
14 | COCCn1cnc2ccc(NC(=O)Nc3cccc(C(C)=O)c3)c(C3CCN(C(=O)OC(C)(C)C)CC3)c2c1=O [Compound 61, tert-butyl 4-(6-(3-(3-acetylphenyl)ureido)-3-(2-methoxyethyl)-4-oxo-3,4-dihydroquinazolin-5-yl)piperidine-1-carboxylate] |  | + |  |  | 
15 | CC(=O)c1cccc(NC(=O)Nc2ccc3ncn(CC(=O)Nc4ccccc4Br)c(=O)c3c2)c1 [Compound 259, 2-(6-(3-(3-acetylphenyl)ureido)-4-oxoquinazolin-3 (4H)-yl)-N-(2-bromophenyl)acetamide] |  | +++ |  |  | 
16 | COCCn1c(CN2CCN(C)CC2)nc2ccc(NC(=O)Nc3cccc(C(C)=O)c3)cc2c1=O [Compound 244, 1-(3-acetylphenyl)-3-(3-(2-methoxyethyl)-2-((4-methylpiperazin-1-yl)methyl)-4-oxo-3,4-dihydroquinazolin-6-yl)urea] |  |  | increased ATGL level |  | 
17 | COCCn1cnc2ccc(NC(=O)Nc3cccc(C(C)=O)c3)c(-c3ccc(C(F)(F)F)cc3)c2c1=O [Compound 66, 1-(3-acetylphenyl)-3-(3-(2-methoxyethyl)-4-oxo-5-(4-(trifluoromethyl)phenyl)-3,4-dihydroquinazolin-6-yl)urea] |  | ++ |  |  | 
18 | COCCn1c(C2CCN(C(=O)OC(C)(C)C)CC2)nc2ccc(NC(=O)Nc3cccc(C(C)=O)c3)cc2c1=O [Compound 299, tert-butyl 4-(6-(3-(3-acetylphenyl)ureido)-3-(2-methoxyethyl)-4-oxo-3,4-dihydroquinazolin-2-yl)piperidine-1-carboxylate] |  |  | increased ATGL level |  | 6.54
19 | COCCn1cnc2ccc(NC(=O)Nc3cccc(C(C)=O)c3)c(C3=CCNCC3)c2c1=O [Compound 60, 1-(3-acetylphenyl)-3-(3-(2-methoxyethyl)-4-oxo-5-(1,2,3,6-tetrahydropyridin-4-yl)-3,4-dihydroquinazolin-6-yl)urea] |  | + |  |  | 
20 | COCCn1cnc2ccc(NC(=O)N(O)c3cccc(C(C)=O)c3)cc2c1=O [Compound 308, 1-(3-acetylphenyl)-1-hydroxy-3-(3-(2-methoxyethyl)-4-oxo-3,4-dihydroquinazolin-6-yl)urea] |  |  | increased ATGL level |  | 
